These results are taken from US6248901A, “Heterocyclic vinyl ethers” (Hoffman-La Roche Inc., priority 1997, dated 2001).

The target of the test is rat mGluR2 receptor (Rattus norvegicus, UniProt P31421). Kind of test: GTP γ^35 S test for affinity to group II mGluR (antagonism of 1S,3R-ACPD effect, membranes with rat mGluR2). In kind it is biochemical. Here is the method: The binding of the compounds of formula I in accordance with the invention to group II metabotropic glutamate receptors was determined in vitro. The preparations were tested in accordance with the test given hereinafter:
The GTP γ^35 S test was used to determine the affinity of a compound to the group II mGluR. Membranes which adhere to the rat mGluR2 receptor were used. These were stimulated with 10 μM 1S,3R-ACPD.
The Ki values of the compounds to be tested are given. The Ki value is defined by the following formula [formula]

rat mGluR2 receptor, sequence (P31421 19-872): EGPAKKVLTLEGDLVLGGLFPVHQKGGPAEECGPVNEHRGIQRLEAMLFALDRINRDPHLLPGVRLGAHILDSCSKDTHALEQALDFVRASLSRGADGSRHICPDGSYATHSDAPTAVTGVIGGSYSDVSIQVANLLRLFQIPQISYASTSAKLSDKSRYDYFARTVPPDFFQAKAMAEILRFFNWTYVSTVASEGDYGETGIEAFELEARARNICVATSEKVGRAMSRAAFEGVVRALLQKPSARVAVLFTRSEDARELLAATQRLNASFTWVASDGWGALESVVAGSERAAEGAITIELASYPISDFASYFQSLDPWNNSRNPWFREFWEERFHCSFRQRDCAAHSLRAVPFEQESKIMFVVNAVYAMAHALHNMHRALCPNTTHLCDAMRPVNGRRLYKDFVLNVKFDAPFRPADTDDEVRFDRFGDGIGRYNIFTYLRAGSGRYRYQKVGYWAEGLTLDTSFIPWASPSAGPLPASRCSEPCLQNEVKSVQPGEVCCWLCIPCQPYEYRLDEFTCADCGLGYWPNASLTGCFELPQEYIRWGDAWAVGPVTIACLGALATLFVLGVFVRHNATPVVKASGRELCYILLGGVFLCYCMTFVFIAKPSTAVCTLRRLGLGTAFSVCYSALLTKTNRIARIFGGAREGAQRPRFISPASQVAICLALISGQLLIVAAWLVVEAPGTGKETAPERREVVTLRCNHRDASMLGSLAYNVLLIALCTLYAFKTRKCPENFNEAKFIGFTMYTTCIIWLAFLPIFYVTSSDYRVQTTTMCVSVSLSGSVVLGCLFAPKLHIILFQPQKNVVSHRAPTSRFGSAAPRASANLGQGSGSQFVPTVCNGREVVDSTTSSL

What is called Ki is the equilibrium dissociation constant of an inhibitor or competing ligand from its target. The low end stands for tighter binding, the high end for weaker binding. `CC(C)COC(=Cn1cncn1)c1ccc(Cl)cc1Cl` [B, 1-[2-(2,4-Dichloro-phenyl)-2-isobutoxy-vinyl]-1H-[1,2,4]triazole]: the Ki was found to be 640 nM.
`CC(C)OC(=Cn1cncn1)c1ccc(Cl)cc1Cl` [A, 1-[2-(2,4-Dichloro-phenyl)-2-isopropoxy-vinyl]-1H-[1,2,4]triazole]: the Ki worked out at 1170 nM.
The value for `CCCCOC(=Cn1cncn1)c1ccc(Br)cc1` [F, 1-[2-(4-Bromo-phenyl)-2-butoxy-vinyl]-1H-[1,2,4]triazole] was 660 nM; that for `COC(=Cn1cncn1)c1ccc(Cl)cc1Cl` [E, 1-[2-(2,4-Dichloro-phenyl)-2-methoxy-vinyl]-1H-[1,2,4]triazole] was 11000 nM.
For `CCCCOC(=Cn1cncn1)c1ccc(Cl)cc1Cl` [C, 1-[-2-(2,4-Dichloro-phenyl)-2-butoxy-2-vinyl]-1H-[1,2,4]triazole] the value was 1400 nM.
For `CC(C)OC(=Cn1cncn1)c1c(Cl)cc(Cl)cc1Cl` [D, 1-[2-(2,4,6-Trichloro-phenyl)-2-isopropoxy-vinyl]-1H-[1,2,4]triazole] the value was 2700 nM.
